Source: patent US10975056B2 (GlaxoSmithKline Intellectual Property Development Limited, priority 2016, dated 2021)
Several values for one entry are separate records, joined by “and”; a condition that tells them apart may be missing. Equal entries are not always repeated. Structures can show the parent of a compound that is named as a salt. Where two headings read alike, the source gives them in different places.

Key:
[1] = target: DNMT1 (Homo sapiens, UniProt P26358); test: DNMT1 biochemical activity, breaklight assay and/or SPA assay
[2] = tested on: erythroid progenitor cells (EPCs); test: Fetal hemoglobin (HbF) ELISA in day 7 erythroid progenitor cells; type: cell-based, human; conditions: Homo sapiens, Erythroid progenitor cell, HbF ELISA, day 7 EPCs, 5 days; read-out: EPC ELISA (pEC50 category) (converted);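 note: for fetal hemoglobin induction normalized to vehicle-treated cells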
How it was run: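 HbF induction was read by anti-HbF sandwich ELISA (HRP/TMB, OD450) on lysates and normalized to vehicle-treated cells. Cells were day 7 erythroid progenitors derived from human bone marrow CD34+ cells, seeded at 1,000/well with 3 U/mL rhEPO. Compound was given for 5 days at 37 °C at final concentrations […].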

[3] = binned activity in either the breaklight or the SPA assay
[4] = breaklight assay and/or SPA assay, repeated experimental runs, read-out: average pIC50 against DNMT1 (converted)
[5] = binned activity in either the breaklight or the SPA assay, read-out: DNMT1 BioChemical (pIC50 category) (converted)

Sequence of DNMT1 (P26358 whole entry, looked up): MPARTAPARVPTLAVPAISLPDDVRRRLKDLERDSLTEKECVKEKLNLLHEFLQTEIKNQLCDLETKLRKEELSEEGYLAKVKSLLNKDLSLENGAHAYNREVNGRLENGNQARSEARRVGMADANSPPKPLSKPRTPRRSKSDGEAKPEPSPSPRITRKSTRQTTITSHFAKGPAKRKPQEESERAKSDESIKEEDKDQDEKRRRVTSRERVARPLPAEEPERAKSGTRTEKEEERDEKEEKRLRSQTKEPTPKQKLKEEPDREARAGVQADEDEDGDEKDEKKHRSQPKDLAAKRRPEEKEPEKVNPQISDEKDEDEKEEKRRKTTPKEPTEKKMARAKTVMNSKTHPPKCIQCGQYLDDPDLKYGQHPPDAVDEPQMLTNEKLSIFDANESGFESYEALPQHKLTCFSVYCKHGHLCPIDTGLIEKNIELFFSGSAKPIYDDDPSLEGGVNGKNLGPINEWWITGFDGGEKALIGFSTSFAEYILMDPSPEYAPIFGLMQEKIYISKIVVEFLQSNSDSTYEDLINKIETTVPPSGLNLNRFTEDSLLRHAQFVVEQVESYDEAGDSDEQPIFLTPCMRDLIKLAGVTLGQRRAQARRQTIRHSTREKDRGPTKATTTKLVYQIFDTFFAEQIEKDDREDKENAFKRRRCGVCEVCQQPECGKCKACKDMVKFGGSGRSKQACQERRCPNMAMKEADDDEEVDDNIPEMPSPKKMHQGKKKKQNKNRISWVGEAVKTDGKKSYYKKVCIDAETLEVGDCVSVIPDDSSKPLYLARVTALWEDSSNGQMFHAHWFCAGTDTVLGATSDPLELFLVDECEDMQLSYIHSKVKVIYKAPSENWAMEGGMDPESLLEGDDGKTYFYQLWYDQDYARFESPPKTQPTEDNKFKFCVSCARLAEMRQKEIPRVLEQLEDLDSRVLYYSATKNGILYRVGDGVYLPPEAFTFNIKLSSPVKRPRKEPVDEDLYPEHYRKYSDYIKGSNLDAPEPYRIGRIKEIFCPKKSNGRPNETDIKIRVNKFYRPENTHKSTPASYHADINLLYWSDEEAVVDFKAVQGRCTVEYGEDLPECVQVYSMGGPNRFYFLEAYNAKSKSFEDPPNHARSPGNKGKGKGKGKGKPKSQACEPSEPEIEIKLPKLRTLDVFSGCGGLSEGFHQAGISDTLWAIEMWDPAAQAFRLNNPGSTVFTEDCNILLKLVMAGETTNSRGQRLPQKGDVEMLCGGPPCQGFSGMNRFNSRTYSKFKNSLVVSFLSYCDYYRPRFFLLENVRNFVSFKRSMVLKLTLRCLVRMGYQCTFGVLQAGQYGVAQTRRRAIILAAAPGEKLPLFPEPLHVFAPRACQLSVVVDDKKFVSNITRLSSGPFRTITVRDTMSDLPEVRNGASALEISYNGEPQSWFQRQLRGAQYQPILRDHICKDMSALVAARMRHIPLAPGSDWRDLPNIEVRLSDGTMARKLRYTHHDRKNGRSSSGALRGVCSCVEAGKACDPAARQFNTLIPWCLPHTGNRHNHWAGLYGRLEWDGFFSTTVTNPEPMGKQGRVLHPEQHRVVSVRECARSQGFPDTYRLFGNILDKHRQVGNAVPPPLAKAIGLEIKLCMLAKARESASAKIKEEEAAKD

Compound | DNMT1 BioChemical (pIC50 category) [1, 3] | EC50 [2] [µM] | average pIC50 against DNMT1 ([1]; breaklight assay and/or SPA assay, repeated experimental runs) | IC50 [1, 4] | IC50 [1, 5] [µM]
CCc1c(C#N)c(S[C@@H](C(N)=O)c2ccccc2)nc(N2CC[C@H](N)[C@@H](F)C2)c1C#N [Example 519, (R)-2-((6-((3S,4S)-4-amino-3-fluoropiperidin-1-yl)-3,5-dicyano-4-ethylpyridin-2-yl)thio)-2-phenylacetamide, Trifluoroacetic acid salt] | D (Category D: ≥6.5) | < 0.316 | – | – | –
CCc1c(C#N)c(SCc2ccc(CNC(=O)CN)cc2)nc(N(C)CCN(CC)CC)c1C#N [Example 520, 2-amino-N-(4-(((3,5-dicyano-6-((2-(diethylamino)ethyl)(methyl)amino)-4-ethylpyridin-2-yl)thio)methyl)benzyl)acetamide] | D (Category D: ≥6.5) | < 0.316 | – | – | –
CCc1c(C#N)c(SC(C(N)=O)c2ccccc2)nc(N2CCC(NC)C2)c1C#N (centres unmarked) [Example 521, 2-((3,5-dicyano-4-ethyl-6-(3-(methylamino)pyrrolidin-1-yl)pyridin-2-yl)thio)-2-phenylacetamide] | D (Category D: ≥6.5) | < 0.316 | – | – | –
CCc1c(C#N)c(SC(C(N)=O)c2ccc(F)cc2)nc(N2CCC(N)CC2)c1C#N (centres unmarked) [Example 522, 2-((6-(4-aminopiperidin-1-yl)-3,5-dicyano-4-ethylpyridin-2-yl)thio)-2-(4-fluorophenyl)acetamide hydrochloride] | D (Category D: ≥6.5) | < 0.316 | – | – | –
CCc1c(C#N)c(S[C@@H](C(N)=O)c2ccccc2)nc(N2CC[C@@H](N)[C@H](O)C2)c1C#N [Example 523, (R)-2-((6-((3R,4R)-4-amino-3-hydroxypiperidin-1-yl)-3,5-dicyano-4-ethylpyridin-2-yl)thio)-2-phenylacetamide 2,2,2-trifluoroacetate*] | D (Category D: ≥6.5) | < 0.316 | > 6.5 | 0.0794 µM | –
CCc1c(C#N)c(SC(C(N)=O)c2ccccc2)nc(N2CC[C@@H](N)C2)c1C#N (stereo partly drawn) [Example 524, 2-((6-((R)-3-aminopyrrolidin-1-yl)-3,5-dicyano-4-ethylpyridin-2-yl)thio)-2-phenylacetamide] | D (Category D: ≥6.5) | < 0.316 | – | – | –
CCc1c(C#N)c(SC(C(N)=O)c2ccccc2)nc(N2CCC(CN)C2)c1C#N (centres unmarked) [Example 525, 2-((6-(3-(aminomethyl)pyrrolidin-1-yl)-3,5-dicyano-4-ethylpyridin-2-yl)thio)-2-phenylacetamide] | D (Category D: ≥6.5) | < 0.316 | – | – | –
CCc1c(C#N)c(SC(C(N)=O)c2ccc(F)cc2)nc(N2CCC(NC)CC2)c1C#N (centres unmarked) [Example 526, 2-((3,5-dicyano-4-ethyl-6-(4-(methylamino)piperidin-1-yl)pyridin-2-yl)thio)-2-(4-fluorophenyl)acetamide] | – | < 0.316 | – | – | < 0.316
CCc1c(C#N)c(SC(C(N)=O)c2ccccc2)nc(N2CCC(NC3CC3)C(F)C2)c1C#N (centres unmarked) [Example 527, 2-((3,5-dicyano-6-(4-(cyclopropylamino)-3-fluoropiperidin-1-yl)-4-ethylpyridin-2-yl)thio)-2-phenylacetamide] | D (Category D: ≥6.5) | < 0.316 | – | – | –
CCc1c(C#N)c(SC(C(N)=O)c2ccccc2)nc(N2CC[C@H](N)C2)c1C#N (stereo partly drawn) [Example 528, 2-((6-((S)-3-aminopyrrolidin-1-yl)-3,5-dicyano-4-ethylpyridin-2-yl)thio)-2-phenylacetamide] | D (Category D: ≥6.5) | < 0.316 | – | – | –
CCc1c(C#N)c(SC(C(N)=O)c2ccccc2)nc(N(C)CCN2CC[C@@H](N)C2)c1C#N (stereo partly drawn) [Example 529, 2-((6-((2-((R)-3-aminopyrrolidin-1-yl)ethyl)(methyl)amino)-3,5-dicyano-4-ethylpyridin-2-yl)thio)-2-phenylacetamide] | D (Category D: ≥6.5) | 0.316 to 1 | – | – | –
CCc1c(C#N)c(SC(C(N)=O)c2ccc(F)cc2)nc(N2CC[C@@H](N(C)C)C2)c1C#N (stereo partly drawn) [Example 530, 2-((3,5-dicyano-6-((R)-3-(dimethylamino)pyrrolidin-1-yl)-4-ethylpyridin-2-yl)thio)-2-(4-fluorophenyl)acetamide] | D (Category D: ≥6.5) | 1 to 31.6 | – | – | –
CCc1c(C#N)c(S[C@H](C(N)=O)c2ccccc2)nc(N2CC[C@@H](N)[C@@H](F)C2)c1C#N [Example 531, (S)-2-((6-((3S,4R)-4-amino-3-fluoropiperidin-1-yl)-3,5-dicyano-4-ethylpyridin-2-yl)thio)-2-phenylacetamide • (0.67)2,2,2-trifluoroacetate • (0.33)methanesulfonate] | – | < 0.316 | – | ≥ 1 µM and 1.58 µM | 1 to 31.6
CCc1c(C#N)c(SC(C(N)=O)c2ccc(C(F)(F)F)cc2)nc(N2CCC(NCC(C)(C)C)CC2)c1C#N (centres unmarked) [Example 532, 2-((3,5-dicyano-4-ethyl-6-(4-(neopentylamino)piperidin-1-yl)pyridin-2-yl)thio)-2-(4-(trifluoromethyl)phenyl)acetamide] | D (Category D: ≥6.5) | < 0.316 | – | – | –
CCc1c(C#N)c(S[C@@H](C(N)=O)c2ccccc2)nc(N2CC[C@@H](NC(=O)OC(C)(C)C)[C@@H](O)C2)c1C#N [Example 533, tert-butyl ((3S,4R)-1-(6-(((R)-2-amino-2-oxo-1-phenylethyl)thio)-3,5-dicyano-4-ethylpyridin-2-yl)-3-hydroxypiperidin-4-yl)carbamate] | D (Category D: ≥6.5) | < 0.316 | – | – | –
CCc1c(C#N)c(S[C@H](C(N)=O)c2ccccc2)nc(N2CC[C@H](N)[C@H](F)C2)c1C#N [Example 540, (S)-2-((6-((3R,4S)-4-amino-3-fluoropiperidin-1-yl)-3,5-dicyano-4-ethylpyridin-2-yl)thio)-2-phenylacetamide 2,2,2-trifluoroacetate] | – | < 0.316 | – | ≥ 1 µM and 3.16 µM | 1 to 31.6

The next lines start with results.

DNMT1 BioChemical (pIC50 category) [1, 3] | EC50 [2] [µM] | average pIC50 against DNMT1 ([1]; breaklight assay and/or SPA assay, repeated experimental runs) | Compound | IC50 [1, 4] | IC50 [1, 5] [µM]
D (Category D: ≥6.5) | 0.316 to 1 | – | CCc1c(C#N)c(SC(C(N)=O)c2ccccc2)nc(N(C)CCN2CC[C@H](N)C2)c1C#N (stereo partly drawn) [Example 535, 2-((6-((2-((S)-3-aminopyrrolidin-1-yl)ethyl)(methyl)amino)-3,5-dicyano-4-ethylpyridin-2-yl)thio)-2-phenylacetamide] | – | –
D (Category D: ≥6.5) | 0.316 to 1 | – | CCc1c(C#N)c(SC(C(N)=O)c2ccccc2)nc(N2CC[C@@H](N(C)C)C2)c1C#N (stereo partly drawn) [Example 536, 2-((3,5-dicyano-6-((R)-3-(dimethylamino)pyrrolidin-1-yl)-4-ethylpyridin-2-yl)thio)-2-phenylacetamide] | – | –
D (Category D: ≥6.5) | 0.316 to 1 | – | CCc1c(C#N)c(S[C@@H](C(N)=O)c2ccccc2)nc(N2CC[C@H](NC(=O)OC(C)(C)C)[C@H](O)C2)c1C#N [Example 537, tert-butyl ((3R,4S)-1-(6-(((R)-2-amino-2-oxo-1-phenylethyl)thio)-3,5-dicyano-4-ethylpyridin-2-yl)-3-hydroxypiperidin-4-yl)carbamate] | – | –
D (Category D: ≥6.5) | 1 to 31.6 | – | CCc1c(C#N)c(SC(C(N)=O)c2ccccc2)nc(N2CC[C@H](N(C)C)C2)c1C#N (stereo partly drawn) [Example 539, 2-((3,5-dicyano-6-((S)-3-(dimethylamino)pyrrolidin-1-yl)-4-ethylpyridin-2-yl)thio)-2-phenylacetamide] | – | –
D (Category D: ≥6.5) | < 0.316 | – | CCc1c(C#N)c(SC(C(N)=O)c2ccccc2)nc(N2CC[C@H](NCC(C)(C)O)C2)c1C#N (stereo partly drawn) [Example 541, 2-((3,5-dicyano-4-ethyl-6-((S)-3-((2-hydroxy-2-methylpropyl)amino)pyrrolidin-1-yl)pyridin-2-yl)thio)-2-phenylacetamide] | – | –
D (Category D: ≥6.5) | 0.316 to 1 | – | CCc1c(C#N)c(S[C@@H](C(N)=O)c2ccccc2)nc(N2CC[C@@H](NC(=O)OC(C)(C)C)[C@H](O)C2)c1C#N [Example 542, tert-butyl((3R,4R)-1-(6-(((R)-2-amino-2-oxo-1-phenylethyl)thio)-3,5-dicyano-4-ethylpyridin-2-yl)-3-hydroxypiperidin-4-yl)carbamate*] | – | –
D (Category D: ≥6.5) | > 31.6 | – | CCc1c(C#N)c(SCc2ccc(C(=O)Nc3cn[nH]c3)cc2)nc(N2CCCN(C)CC2)c1C#N [Example 543, 4-(((3,5-dicyano-4-ethyl-6-(4-methyl-1,4-diazepan-1-yl)pyridin-2-yl)thio)methyl)-N-(1H-pyrazol-4-yl)benzamide] | – | –
D (Category D: ≥6.5) | 1 to 31.6 | – | CCc1c(C#N)c(SC(C(N)=O)c2ccc(F)cc2)nc(N2CC[C@H](N(C)C)C2)c1C#N (stereo partly drawn) [Example 544, 2-((3,5-dicyano-6-((S)-3-(dimethylamino)pyrrolidin-1-yl)-4-ethylpyridin-2-yl)thio)-2-(4-fluorophenyl)acetamide] | – | –
D (Category D: ≥6.5) | < 0.316 | – | CCc1c(C#N)c(SC(C(N)=O)c2ccccc2)nc(N2CCC(NC)CC2)c1C#N (centres unmarked) [Example 547, 2-((3,5-dicyano-4-ethyl-6-(4-(methylamino)piperidin-1-yl)pyridin-2-yl)thio)-2-phenylacetamide] | – | –
D (Category D: ≥6.5) | < 0.316 | – | CCc1c(C#N)c(SC(C(N)=O)c2ccccc2)nc(N2CCC(N(C)C)CC2)c1C#N (centres unmarked) [Example 548, 2-((3,5-dicyano-6-(4-(dimethylamino)piperidin-1-yl)-4-ethylpyridin-2-yl)thio)-2-phenylacetamide] | – | –
